Laboratory results published in patent US10717731B2, “Nitrogen-containing aromatic heterocyclic compound” (MITSUBISHI TANABE PHARMA CORPORATION, priority 2015, dated 2020).

These molecules were tested against T1, human CYP11B2 (Homo sapiens, UniProt P19099) (assay: Inhibitory effect on hCYP11B2: aldosterone production in mitochondrial fraction of V79 cells stably expressing human CYP11B2, HTRF). Conditions: 0.5 μmol/L deoxycorticosterone, 150 μmol/L NADPH, 1.5-2 hours at room temperature.
T1 construct: expressed in transfected cells; mitochondrial fraction
T1 sequence (P19099 25-503): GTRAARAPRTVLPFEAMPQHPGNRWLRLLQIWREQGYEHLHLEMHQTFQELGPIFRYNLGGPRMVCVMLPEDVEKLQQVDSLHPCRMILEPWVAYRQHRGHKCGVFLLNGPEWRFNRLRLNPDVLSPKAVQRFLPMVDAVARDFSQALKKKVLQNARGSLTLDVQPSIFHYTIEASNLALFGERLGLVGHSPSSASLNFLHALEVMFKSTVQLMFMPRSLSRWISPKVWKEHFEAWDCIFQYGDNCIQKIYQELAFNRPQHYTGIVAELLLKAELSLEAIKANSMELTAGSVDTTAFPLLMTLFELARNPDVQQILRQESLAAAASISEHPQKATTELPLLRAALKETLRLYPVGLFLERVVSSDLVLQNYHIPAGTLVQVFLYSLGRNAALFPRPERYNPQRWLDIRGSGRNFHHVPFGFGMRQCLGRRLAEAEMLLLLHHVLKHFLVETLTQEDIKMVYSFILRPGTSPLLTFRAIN
Type: biochemical
Procedure: Experimental Example 1 (Inhibitory Effect on hCYP11B2)
The pcDNA3.1-human CYP11B2 plasmid was transfected into a Chinese hamster lung fibroblast V79 cell line to produce a cell line stably expressing human CYP11B2 gene.
The cells were cultured and grown in the Dulbecco's modified Eagle's/Ham's medium supplemented with 10% fetal bovine serum and 1% G418 disulfate solution under the environment of 37° C., 95% air, and 5% CO2, and the grown cells were harvested.
Then, the cells were fractionated to obtain mitochondria by reference to a method described in Chabre et al. JCE & M 85 (11) 4060-68, 2000. In particular, the cells suspended in a 5 mmol/L Tris-HCl buffer (pH 7.4) containing 250 mmol/L sucrose were homogenized in a Teflon (Registered Trademark) Potter Elvehjem homogenizer, and then the suspension was centrifuged (800×g, 15 min.). The supernatant was separated and again centrifuged (10000×g, 15 min.) to obtain a pellet (mitochondrial fraction).
The mitochondrial fraction diluted with a buffer containing 10 mmol/L KH2PO4, 10 mmol/L Tris, 20 mmol/L KCl, 25 mmol/L sucrose, 5 mmol/L MgCl2, and 0.05% bovine serum albumin was dispensed to a 96-well plate. 0.5 μmol/L Deoxycorticosterone, 150 μmol/L NADPH and a compound of each concentration were added to each well, and incubated for 1.5-2 hours at room temperature to produce aldosterone. An amount of the produced aldosterone in the incubated solution was determined by using HTRF (Homogeneous Time Resolved Fluorescence) method.
IC50 (nmol/L) was calculated by analyzing the aldosterone production inhibition rate (%) of each concentration of compounds by non-linear regression to a logistic curve.
`O=C(CN1CCN(c2cc(-c3ccc(F)cc3)cnn2)CC1)N[C@@H]1CCNC[C@H]1F` (single isomer, unassigned) [Example 89a] was tested, and the IC50 was 7.4 nM. `O=C(CN1CCN(c2cc(-c3ccc(Cl)cc3)cnn2)CC1)NC1CCNCC1O` (single isomer, unassigned) [Example 90a] was tested, and the IC50 was 33 nM. Molecule `O=C(CN1CCN(c2cc(-c3ccc(Cl)cc3)cnn2)CC1)NC1CCNCC1O` (single isomer, unassigned) [Example 90b] has an IC50 of 76 nM. `CN1CCC(NC(=O)CN2CCN(c3cc(-c4ccc(Cl)cc4)cnn3)CC2)CC1=O` (single isomer, unassigned) [Example 91a] was tested, and the IC50 was 30 nM. Work on `CN1CCC(NC(=O)CN2CCN(c3cc(-c4ccc(Cl)cc4)cnn3)CC2)CC1=O` (single isomer, unassigned) [Example 91b] yielded an IC50 of 12 nM. Work on `O=C(CN1CCN(c2cncc(-c3ccc(F)cc3)c2)CC1)NC1CCn2ccnc2C1` (stereo not drawn) [Example 1] yielded an IC50 of 6.6 nM. Work on `CC(C)(C)OC(=O)N1C2COCC1CC(NC(=O)CN1CCN(c3cncc(-c4ccc(F)cc4)c3)CC1)C2` (stereo not drawn) [Example 5] yielded an IC50 of 14 nM. For `CN(C)[C@H]1CC[C@@H](NC(=O)CN2CCN(c3cncc(-c4ccc(F)cc4)c3)CC2)CC1` [Example 6], the IC50 was 13 nM. With `Cc1ccccc1-c1cncc(N2CCN(CC(=O)Nc3cnn(C)c3)CC2)c1` [Example 7] the IC50 was 4.8 nM. `Cc1ccccc1-c1cncc(N2CCN(CC(=O)N[C@H](CO)C(C)C)CC2)c1` [Example 8] gave an IC50 of 4.9 nM. `Cc1ccc(-c2cncc(N3CCN(CC(=O)NC4CC5COCC(C4)C5O)CC3)c2)cc1` (stereo not drawn) [Example 10] was tested, and the IC50 was 9.2 nM. `CC(C)NC(=O)CN1CCN(c2cncc(-c3ccc(C#N)nc3)c2)CC1` [Example 11] gave an IC50 of 18 nM. `CC(C)NC(=O)CN1CCN(c2cncc(-c3ccc4c(c3)CCO4)c2)CC1` [Example 13] showed an IC50 of 11 nM. Molecule `CC(C)NC(=O)CN1CCN(c2cncc(-c3ccc4cn[nH]c4c3)c2)CC1` [Example 14] has an IC50 of 30 nM. Work on `CC(C)NC(=O)CN1CCN(c2cncc(-c3ccc4cnn(C)c4c3)c2)CC1` [Example 15] yielded an IC50 of 18 nM. `CC1CC=C(c2cncc(N3CCN(CC(=O)NC(C)C)CC3)c2)CC1` (stereo not drawn) [Example 16] gave an IC50 of 6.9 nM. Molecule `CC1CCC(c2cncc(N3CCN(CC(=O)NC(C)C)CC3)c2)CC1` (stereo not drawn) [Example 17] has an IC50 of 17 nM. In the case of `C[C@H](O)CNC(=O)CN1CCN(c2cncc(-c3ccc4cnn(C)c4c3)n2)CC1` [Example 18], the IC50 is reported as 14 nM. `CO[C@H]1CC[C@@H](NC(=O)CN2CCN(c3cncc(-c4ccc(C)cc4)n3)CC2)CC1` [Example 20] gave an IC50 of 4.5 nM. `Cc1ccc(-c2cncc(N3CCN(CC(=O)NCC4(O)CCN(C)CC4)CC3)n2)cc1` [Example 21] was tested, and the IC50 was 28 nM. `Cn1ncc2ccc(-c3cncc(N4CCN(CC(=O)N[C@H]5CC[C@@H](CO)CC5)CC4)n3)cc21` [Example 22] gave an IC50 of 19 nM. `CO[C@H]1CC[C@@H](NC(=O)CN2CCN(c3cncc(-c4ccc5cnn(C)c5c4)n3)CC2)CC1` [Example 26] gave an IC50 of 14 nM. Molecule `CN1CCC(NC(=O)CN2CCN(c3cncc(-c4ccc5cnn(C)c5c4)n3)CC2)CC1` [Example 27] has an IC50 of 42 nM. `CO[C@H]1CC[C@@H](NC(=O)CN2CCN(c3cncc(-c4ccc5c(cnn5C)c4)n3)CC2)CC1` [Example 28] gave an IC50 of 10 nM. `Cn1ncc2cc(-c3cncc(N4CCN(CC(=O)N[C@H]5CC[C@@H](N(C)C)CC5)CC4)n3)ccc21` [Example 29] gave an IC50 of 37 nM. `Cn1ncc2cc(-c3cncc(N4CCN(CC(=O)N[C@H]5CC[C@@H](C(C)(C)O)CC5)CC4)n3)ccc21` [Example 30] was tested, and the IC50 was 13 nM. Molecule `CN(C)[C@H]1CC[C@H](NC(=O)CN2CCN(c3cncc(-c4ccc(F)cc4)n3)CC2)CC1` [Example 31] has an IC50 of 5.1 nM. Work on `O=C(CN1CCN(c2cncc(-c3ccc(F)cc3)n2)CC1)N[C@H]1CC[C@@H](N2CCOCC2)CC1` [Example 32] yielded an IC50 of 9.6 nM. `O=C1CN([C@H]2CC[C@@H](NC(=O)CN3CCN(c4cncc(-c5ccc(F)cc5)n4)CC3)CC2)CCN1` [Example 33] gave an IC50 of 3.9 nM. In the case of `O=C(CN1CCN(c2cncc(-c3ccc(F)cc3)n2)CC1)NC1CCN(C2CCOCC2)CC1` [Example 34], the IC50 is reported as 7 nM. Work on `CS(=O)(=O)CCN1CCC(NC(=O)CN2CCN(c3cncc(-c4ccc(F)cc4)n3)CC2)CC1` [Example 35] yielded an IC50 of 8.6 nM. Molecule `O=C(CN1CCN(c2cncc(-c3ccc(F)cc3)n2)CC1)NC1CCN(c2ncccn2)CC1` [Example 36] has an IC50 of 4.8 nM. Molecule `CC(=O)N[C@H]1CC[C@@H](NC(=O)CN2CCN(c3cncc(-c4ccc(F)cc4)n3)CC2)CC1` [Example 37] has an IC50 of 8.4 nM. In the case of `CN(C)[C@H]1CC[C@@H](NC(=O)CN2CCN(c3cncc(-c4ccc(Cl)cc4)n3)CC2)CC1` [Example 38], the IC50 is reported as 8.7 nM. Molecule `CC(C)[C@@H](CO)NC(=O)CN1CCN(c2cncc(-c3ccc(Cl)cc3)n2)CC1` [Example 39] has an IC50 of 4.3 nM. For `O=C(CN1CCN(c2cncc(-c3ccc(Cl)cc3)n2)CC1)NN1CCCC1` [Example 40], the IC50 was 4 nM. In the case of `O=C(CN1CCN(c2cncc(-c3ccc(Cl)cc3)n2)CC1)NC1CCS(=O)(=O)CC1` [Example 41], the IC50 is reported as 9.6 nM. In the case of `CC(C)[C@@H](CO)NC(=O)CN1CCN(c2cncc(-c3ccc(C(F)(F)F)cc3)n2)C[C@H]1C` [Example 42], the IC50 is reported as 40 nM. Work on `C[C@@H]1CN(c2cncc(-c3ccc(C(F)(F)F)cc3)n2)CCN1CC(=O)N[C@H]1CC[C@](C)(O)CC1` [Example 43] yielded an IC50 of 41 nM. For `C[C@@H]1CN(c2cncc(-c3ccc(C(F)(F)F)cc3)n2)CCN1CC(=O)N[C@@H](C)C(C)(C)O` [Example 44], the IC50 was 56 nM. `C[C@@H]1CN(c2cncc(-c3ccc(C(F)(F)F)cc3)n2)CCN1CC(=O)NCC(C)(C)O` [Example 45] showed an IC50 of 20 nM. `C[C@@H]1CN(c2cncc(-c3ccc(C(F)(F)F)cc3)n2)CCN1CC(=O)N[C@H]1CCC[C@H]1O` [Example 46] was tested, and the IC50 was 26 nM. In the case of `Cc1ccccc1-c1cncc(N2CCN(CC(=O)NC3CCN(CCS(C)(=O)=O)CC3)CC2)n1` [Example 47], the IC50 is reported as 22 nM. `Cc1ccccc1-c1cncc(N2CCN(CC(=O)N[C@H]3CN4CCC3CC4)CC2)n1` [Example 48] gave an IC50 of 14 nM. In the case of `CC(C)NC(=O)CN1CCN(c2cncc(-c3ccc4c(cnn4C)c3)n2)CC1` [Example 50], the IC50 is reported as 48 nM. Work on `CC(C)NC(=O)CN1CCN(c2cncc(-c3ccc(C(F)(F)F)cc3)n2)C[C@H]1C` [Example 51] yielded an IC50 of 17 nM. Molecule `CC1CCC(c2cncc(N3CCN(CC(=O)NC(C)C)CC3)n2)CC1` (stereo not drawn) [Example 52] has an IC50 of 18 nM. Molecule `CC(C)NC(=O)CN1CCN(c2cncc(-c3ccc(C#N)nc3)n2)CC1` [Example 53] has an IC50 of 25 nM. `Cn1ncc2ccc(-c3cncc(N4CCN(CC(=O)NN5CCCC5)CC4)n3)cc21` [Example 54] gave an IC50 of 16 nM. `CC(C)NC(=O)CN1CCN(c2cncc(-c3ccc4c(c3)CCO4)n2)CC1` [Example 55] was tested, and the IC50 was 2.2 nM. `CC(C)NC(=O)CN1CCN(c2cncc(-c3ccc4cn[nH]c4c3)n2)CC1` [Example 56] gave an IC50 of 38 nM. `Cc1ccccc1-c1cnnc(N2CCN(CC(=O)N[C@H]3CC[C@H](N4CCOCC4)CC3)CC2)c1` [Example 57] showed an IC50 of 16 nM. `Cc1ccc(-c2cnnc(N3CCN(CC(=O)N[C@@H]4CCOC[C@@H]4O)CC3)c2)cc1` [Example 58] showed an IC50 of 20 nM. With `CNC(=O)CN1CCC(NC(=O)CN2CCN(c3cc(-c4ccc(C)cc4)cnn3)CC2)CC1` [Example 59] the IC50 was 23 nM. `Cc1ccc(-c2cnnc(N3CCN(CC(=O)NC[C@H]4CN(C)CCO4)CC3)c2)cc1` [Example 60] showed an IC50 of 18 nM. `Cc1ccccc1-c1cnnc(N2CCN(CC(=O)Nc3cccnc3)CC2)c1` [Example 61] was tested, and the IC50 was 2.5 nM. Molecule `CS(=O)(=O)N1CCC(CNC(=O)CN2CCN(c3cc(-c4ccc(F)cc4)cnn3)CC2)CC1` [Example 62] has an IC50 of 11 nM. `C[C@H](O)CNC(=O)CN1CCN(c2cc(-c3ccc(F)cc3)cnn2)CC1` [Example 63] showed an IC50 of 8.8 nM. `CC(C)(C)OC(=O)N1CCN(CCNC(=O)CN2CCN(c3cc(-c4ccc(F)cc4)cnn3)CC2)CC1` [Example 64] gave an IC50 of 6.6 nM. `COC1CCN(NC(=O)CN2CCN(c3cc(-c4ccc(Cl)cc4)cnn3)CC2)CC1` [Example 65] gave an IC50 of 9.1 nM. In the case of `CNC(=O)COC1CCC(NC(=O)CN2CCN(c3cc(-c4ccc(F)cc4)cnn3)CC2)CC1` (stereo not drawn) [Example 66], the IC50 is reported as 9.6 nM. `CN(C)[C@H]1CC[C@@H](NC(=O)CN2CCN(c3cc(-c4c(F)cccc4F)cnn3)CC2)CC1` [Example 67] showed an IC50 of 41 nM. `CNC(=O)COC1CCC(NC(=O)CN2CCN(c3cc(-c4ccc(Cl)cc4)cnn3)CC2)CC1` (stereo not drawn) [Example 68] showed an IC50 of 8.3 nM.
